Assays:
Assay type in all cases: functional
Conditions in all cases: read-out: GI
SNB-75 = test: Growth inhibition of human SNB-75 cells at 10 uM incubated for 48 hrs by sulforhodamine B assay relative to control
HCT-15 = test: Growth inhibition of human HCT-15 cells at 10 uM incubated for 48 hrs by sulforhodamine B assay relative to control
PC-3 = test: Growth inhibition of human PC-3 cells at 10 uM incubated for 48 hrs by sulforhodamine B assay relative to control
NCI-H522 = test: Growth inhibition of human NCI-H522 cells at 10 uM incubated for 48 hrs by sulforhodamine B assay relative to control
OVCAR-3 = test: Growth inhibition of human OVCAR-3 cells at 10 uM incubated for 48 hrs by sulforhodamine B assay relative to control
SF-539 = test: Growth inhibition of human SF-539 cells at 10 uM incubated for 48 hrs by sulforhodamine B assay relative to control
IGROV-1 = test: Growth inhibition of human IGROV-1 cells at 10 uM incubated for 48 hrs by sulforhodamine B assay relative to control
MCF7 = test: Growth inhibition of human MCF7 cells at 10 uM incubated for 48 hrs by sulforhodamine B assay relative to control
CCRF-CEM = test: Growth inhibition of human CCRF-CEM cells at 10 uM incubated for 48 hrs by sulforhodamine B assay relative to control
SF-295 = test: Growth inhibition of human SF-295 cells at 10 uM incubated for 48 hrs by sulforhodamine B assay relative to control
Malme-3M = test: Growth inhibition of human Malme-3M cells at 10 uM incubated for 48 hrs by sulforhodamine B assay relative to control
HOP-92 = test: Growth inhibition of human HOP-92 cells at 10 uM incubated for 48 hrs by sulforhodamine B assay relative to control
OVCAR-5 = test: Growth inhibition of human OVCAR-5 cells at 10 uM incubated for 48 hrs by sulforhodamine B assay relative to control
MDA-MB-231 = test: Growth inhibition of human MDA-MB-231 cells at 10 uM incubated for 48 hrs by sulforhodamine B assay relative to control
NCI-H226 = test: Growth inhibition of human NCI-H226 cells at 10 uM incubated for 48 hrs by sulforhodamine B assay relative to control
SK-MEL-5 = test: Growth inhibition of human SK-MEL-5 cells at 10 uM incubated for 48 hrs by sulforhodamine B assay relative to control
Hs-578T = test: Growth inhibition of human Hs-578T cells at 10 uM incubated for 48 hrs by sulforhodamine B assay relative to control
TK-10 = test: Growth inhibition of human TK-10 cells at 10 uM incubated for 48 hrs by sulforhodamine B assay relative to control
MDA-MB-468 = test: Growth inhibition of human MDA-MB-468 cells at 10 uM incubated for 48 hrs by sulforhodamine B assay relative to control
UACC-62 = test: Growth inhibition of human UACC-62 cells at 10 uM incubated for 48 hrs by sulforhodamine B assay relative to control
SF-268 = test: Growth inhibition of human SF-268 cells at 10 uM incubated for 48 hrs by sulforhodamine B assay relative to control
UACC-257 = test: Growth inhibition of human UACC-257 cells at 10 uM incubated for 48 hrs by sulforhodamine B assay relative to control
HCC 2998 = test: Growth inhibition of human HCC 2998 cells at 10 uM incubated for 48 hrs by sulforhodamine B assay relative to control
RXF 393 = test: Growth inhibition of human RXF 393 cells at 10 uM incubated for 48 hrs by sulforhodamine B assay relative to control
COLO 205 = test: Growth inhibition of human COLO 205 cells at 10 uM incubated for 48 hrs by sulforhodamine B assay relative to control
BT-549 = test: Growth inhibition of human BT-549 cells at 10 uM incubated for 48 hrs by sulforhodamine B assay relative to control
M14 = test: Growth inhibition of human M14 cells at 10 uM incubated for 48 hrs by sulforhodamine B assay relative to control
OVCAR-8 = test: Growth inhibition of human OVCAR-8 cells at 10 uM incubated for 48 hrs by sulforhodamine B assay relative to control
HCT-116 = test: Growth inhibition of human HCT-116 cells at 10 uM incubated for 48 hrs by sulforhodamine B assay relative to control
MDA-MB-435 = test: Growth inhibition of human MDA-MB-435 cells at 10 uM incubated for 48 hrs by sulforhodamine B assay relative to control
SN12C = test: Growth inhibition of human SN12C cells at 10 uM incubated for 48 hrs by sulforhodamine B assay relative to control
KM12 = test: Growth inhibition of human KM12 cells at 10 uM incubated for 48 hrs by sulforhodamine B assay relative to control
K562 = test: Growth inhibition of human K562 cells at 10 uM incubated for 48 hrs by sulforhodamine B assay relative to control
NCI/ADR-RES = test: Growth inhibition of human NCI/ADR-RES cells at 10 uM incubated for 48 hrs by sulforhodamine B assay relative to control
SNB-19 = test: Growth inhibition of human SNB-19 cells at 10 uM incubated for 48 hrs by sulforhodamine B assay relative to control
HL-60(TB) = test: Growth inhibition of human HL-60(TB) cells at 10 uM incubated for 48 hrs by sulforhodamine B assay relative to control
SK-MEL-28 = test: Growth inhibition of human SK-MEL-28 cells at 10 uM incubated for 48 hrs by sulforhodamine B assay relative to control
NCI-H23 = test: Growth inhibition of human NCI-H23 cells at 10 uM incubated for 48 hrs by sulforhodamine B assay relative to control
DU-145 = test: Growth inhibition of human DU-145 cells at 10 uM incubated for 48 hrs by sulforhodamine B assay relative to control
OVCAR-4 = test: Growth inhibition of human OVCAR-4 cells at 10 uM incubated for 48 hrs by sulforhodamine B assay relative to control
MOLT-4 = test: Growth inhibition of human MOLT-4 cells at 10 uM incubated for 48 hrs by sulforhodamine B assay relative to control
HT-29 = test: Growth inhibition of human HT-29 cells at 10 uM incubated for 48 hrs by sulforhodamine B assay relative to control
UO-31 = test: Growth inhibition of human UO-31 cells at 10 uM incubated for 48 hrs by sulforhodamine B assay relative to control
LOX IMVI = test: Growth inhibition of human LOX IMVI cells at 10 uM incubated for 48 hrs by sulforhodamine B assay relative to control

Structure (SMILES): O=C(Cn1nnc2ccccc21)Nc1ccc(-c2nc3ccccc3s2)cc1
- inhibition of growth at 10 µM (SNB-75): -6.26%
- inhibition of growth at 10 µM (HCT-15): 8.49%
- inhibition of growth at 10 µM (PC-3): 16.7%
- inhibition of growth at 10 µM (NCI-H522): 20.8%
- inhibition of growth at 10 µM (OVCAR-3): 9.56%
- inhibition of growth at 10 µM (SF-539): 28.8%
- inhibition of growth at 10 µM (IGROV-1): 2.46%
- inhibition of growth at 10 µM (MCF7): 71.1%
- inhibition of growth at 10 µM (CCRF-CEM): 30.3%
- inhibition of growth at 10 µM (SF-295): 15.2%
- inhibition of growth at 10 µM (Malme-3M): 3.07%
- inhibition of growth at 10 µM (HOP-92): 26.9%
- inhibition of growth at 10 µM (OVCAR-5): -4.45%
- inhibition of growth at 10 µM (MDA-MB-231): 5.25%
- inhibition of growth at 10 µM (NCI-H226): 32.5%
- inhibition of growth at 10 µM (SK-MEL-5): 25.7%
- inhibition of growth at 10 µM (Hs-578T): -11.5%
- inhibition of growth at 10 µM (TK-10): 5.23%
- inhibition of growth at 10 µM (MDA-MB-468): 124%
- inhibition of growth at 10 µM (UACC-62): 2.9%
- inhibition of growth at 10 µM (SF-268): 7.63%
- inhibition of growth at 10 µM (UACC-257): 5.5%
- inhibition of growth at 10 µM (HCC 2998): 6.26%
- inhibition of growth at 10 µM (RXF 393): 0.05%
- inhibition of growth at 10 µM (COLO 205): -5.13%
- inhibition of growth at 10 µM (BT-549): 13.5%
- inhibition of growth at 10 µM (M14): 9.36%
- inhibition of growth at 10 µM (OVCAR-8): 1.53%
- inhibition of growth at 10 µM (HCT-116): 2.6%
- inhibition of growth at 10 µM (MDA-MB-435): 4.09%
- inhibition of growth at 10 µM (SN12C): -0.79%
- inhibition of growth at 10 µM (KM12): 8.6%
- inhibition of growth at 10 µM (K562): 44.8%
- inhibition of growth at 10 µM (NCI/ADR-RES): 3.77%
- inhibition of growth at 10 µM (SNB-19): -2.9%
- inhibition of growth at 10 µM (HL-60(TB)): 9.24%
- inhibition of growth at 10 µM (SK-MEL-28): -1.87%
- inhibition of growth at 10 µM (NCI-H23): 19.3%
- inhibition of growth at 10 µM (DU-145): 26%
- inhibition of growth at 10 µM (OVCAR-4): 27.8%
- inhibition of growth at 10 µM (MOLT-4): 38.4%
- inhibition of growth at 10 µM (HT-29): -0.75%
- inhibition of growth at 10 µM (UO-31): 13.5%
- inhibition of growth at 10 µM (LOX IMVI): 15.8%

Structure (SMILES): O=C(Cn1cnc2ccccc21)Nc1ccc(-c2nc3ccccc3s2)cc1
- inhibition of growth at 10 µM (SNB-75): 6.6%
- inhibition of growth at 10 µM (HCT-15): 7.41%
- inhibition of growth at 10 µM (PC-3): 33.3%
- inhibition of growth at 10 µM (NCI-H522): 33.4%
- inhibition of growth at 10 µM (OVCAR-3): 35.8%
- inhibition of growth at 10 µM (SF-539): 22.9%
- inhibition of growth at 10 µM (IGROV-1): 35.1%
- inhibition of growth at 10 µM (MCF7): 50.6%
- inhibition of growth at 10 µM (CCRF-CEM): 27.1%
- inhibition of growth at 10 µM (SF-295): 56.7%
- inhibition of growth at 10 µM (Malme-3M): 18.9%
- inhibition of growth at 10 µM (HOP-92): 18.4%
- inhibition of growth at 10 µM (OVCAR-5): -5.63%
- inhibition of growth at 10 µM (MDA-MB-231): 9.34%
- inhibition of growth at 10 µM (NCI-H226): 36.9%
- inhibition of growth at 10 µM (SK-MEL-5): 70.9%
- inhibition of growth at 10 µM (Hs-578T): 8.79%
- inhibition of growth at 10 µM (TK-10): 22.6%
- inhibition of growth at 10 µM (MDA-MB-468): 70.3%
- inhibition of growth at 10 µM (UACC-62): 13%
- inhibition of growth at 10 µM (SF-268): 14.7%
- inhibition of growth at 10 µM (UACC-257): 37.9%
- inhibition of growth at 10 µM (HCC 2998): 24.9%
- inhibition of growth at 10 µM (RXF 393): 6.89%
- inhibition of growth at 10 µM (COLO 205): 22.5%
- inhibition of growth at 10 µM (BT-549): 43.5%
- inhibition of growth at 10 µM (M14): 13.6%
- inhibition of growth at 10 µM (OVCAR-8): 28%
- inhibition of growth at 10 µM (HCT-116): 56.5%
- inhibition of growth at 10 µM (MDA-MB-435): 32.3%
- inhibition of growth at 10 µM (SN12C): 16.2%
- inhibition of growth at 10 µM (KM12): 24.9%
- inhibition of growth at 10 µM (K562): 66.4%
- inhibition of growth at 10 µM (NCI/ADR-RES): 38.9%
- inhibition of growth at 10 µM (SNB-19): 28.5%
- inhibition of growth at 10 µM (HL-60(TB)): 29.8%
- inhibition of growth at 10 µM (SK-MEL-28): -0.72%
- inhibition of growth at 10 µM (NCI-H23): 51.5%
- inhibition of growth at 10 µM (DU-145): 21.8%
- inhibition of growth at 10 µM (OVCAR-4): 57.9%
- inhibition of growth at 10 µM (MOLT-4): 44.2%
- inhibition of growth at 10 µM (HT-29): 12.7%
- inhibition of growth at 10 µM (UO-31): 35.4%
- inhibition of growth at 10 µM (LOX IMVI): 44.6%
